Measured values from paper PMC12372887, “Mechanism and cellular actions of the potent AMPK inhibitor BAY-3827” (Science Advances, 2025).

Experiments:
FGF-R1 = FGF-R1 (Homo sapiens, UniProt P11362); assay: Kinase panel (140 human kinases); format: biochemical
Procedure: (§1) BAY-3827 and BAY-974 were assayed against a 140-human kinase panel at 0.1 μM and at 1 μM (BAY-3827) concentration in a [γ-^33P] ATP–based radioactive filter binding assay ([31], [65]) setup in duplicates with reported mean remaining kinase percentage activity alongside SD (table S1). Assays were performed at either 5, 20, or 50 μM ATP to be at or below the Michaelis constant for ATP for each enzyme and conducted by the services offered by the International Centre for Kinase Profiling at MRC Protein Phosphorylation and Ubiquitylation Unit, University of Dundee (https://www.kinase-screen.mrc.ac.uk/services/premier-screen).

MARK1 = MARK1 (Homo sapiens, UniProt Q9P0L2); assay: Kinase panel (140 human kinases); format: biochemical
Sequence of MARK1 (Q9P0L2 whole entry): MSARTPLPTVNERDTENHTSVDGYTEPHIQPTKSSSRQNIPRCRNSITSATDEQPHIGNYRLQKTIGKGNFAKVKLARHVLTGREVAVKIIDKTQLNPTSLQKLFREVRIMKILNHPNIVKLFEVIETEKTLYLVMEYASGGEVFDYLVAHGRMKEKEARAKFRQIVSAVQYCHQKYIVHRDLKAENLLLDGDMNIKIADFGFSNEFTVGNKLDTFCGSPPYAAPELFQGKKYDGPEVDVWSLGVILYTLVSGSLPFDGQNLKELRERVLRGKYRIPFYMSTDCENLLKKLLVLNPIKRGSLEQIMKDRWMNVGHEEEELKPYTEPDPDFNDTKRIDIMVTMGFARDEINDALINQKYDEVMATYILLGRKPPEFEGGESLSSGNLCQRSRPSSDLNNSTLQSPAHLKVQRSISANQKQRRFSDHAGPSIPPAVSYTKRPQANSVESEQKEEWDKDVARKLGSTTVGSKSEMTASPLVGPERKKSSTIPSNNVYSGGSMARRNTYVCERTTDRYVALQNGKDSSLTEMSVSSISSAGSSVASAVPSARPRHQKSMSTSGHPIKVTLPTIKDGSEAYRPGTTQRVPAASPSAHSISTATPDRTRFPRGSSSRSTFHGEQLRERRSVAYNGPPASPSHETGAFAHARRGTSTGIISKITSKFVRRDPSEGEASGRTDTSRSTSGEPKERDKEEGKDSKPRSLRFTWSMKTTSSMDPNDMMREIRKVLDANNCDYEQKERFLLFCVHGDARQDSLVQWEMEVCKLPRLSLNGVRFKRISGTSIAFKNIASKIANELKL
Procedure: as §1

MINK1 = MINK1 (Homo sapiens, UniProt Q8N4C8); assay: Kinase panel (140 human kinases); format: biochemical
Sequence of MINK1 (Q8N4C8 whole entry): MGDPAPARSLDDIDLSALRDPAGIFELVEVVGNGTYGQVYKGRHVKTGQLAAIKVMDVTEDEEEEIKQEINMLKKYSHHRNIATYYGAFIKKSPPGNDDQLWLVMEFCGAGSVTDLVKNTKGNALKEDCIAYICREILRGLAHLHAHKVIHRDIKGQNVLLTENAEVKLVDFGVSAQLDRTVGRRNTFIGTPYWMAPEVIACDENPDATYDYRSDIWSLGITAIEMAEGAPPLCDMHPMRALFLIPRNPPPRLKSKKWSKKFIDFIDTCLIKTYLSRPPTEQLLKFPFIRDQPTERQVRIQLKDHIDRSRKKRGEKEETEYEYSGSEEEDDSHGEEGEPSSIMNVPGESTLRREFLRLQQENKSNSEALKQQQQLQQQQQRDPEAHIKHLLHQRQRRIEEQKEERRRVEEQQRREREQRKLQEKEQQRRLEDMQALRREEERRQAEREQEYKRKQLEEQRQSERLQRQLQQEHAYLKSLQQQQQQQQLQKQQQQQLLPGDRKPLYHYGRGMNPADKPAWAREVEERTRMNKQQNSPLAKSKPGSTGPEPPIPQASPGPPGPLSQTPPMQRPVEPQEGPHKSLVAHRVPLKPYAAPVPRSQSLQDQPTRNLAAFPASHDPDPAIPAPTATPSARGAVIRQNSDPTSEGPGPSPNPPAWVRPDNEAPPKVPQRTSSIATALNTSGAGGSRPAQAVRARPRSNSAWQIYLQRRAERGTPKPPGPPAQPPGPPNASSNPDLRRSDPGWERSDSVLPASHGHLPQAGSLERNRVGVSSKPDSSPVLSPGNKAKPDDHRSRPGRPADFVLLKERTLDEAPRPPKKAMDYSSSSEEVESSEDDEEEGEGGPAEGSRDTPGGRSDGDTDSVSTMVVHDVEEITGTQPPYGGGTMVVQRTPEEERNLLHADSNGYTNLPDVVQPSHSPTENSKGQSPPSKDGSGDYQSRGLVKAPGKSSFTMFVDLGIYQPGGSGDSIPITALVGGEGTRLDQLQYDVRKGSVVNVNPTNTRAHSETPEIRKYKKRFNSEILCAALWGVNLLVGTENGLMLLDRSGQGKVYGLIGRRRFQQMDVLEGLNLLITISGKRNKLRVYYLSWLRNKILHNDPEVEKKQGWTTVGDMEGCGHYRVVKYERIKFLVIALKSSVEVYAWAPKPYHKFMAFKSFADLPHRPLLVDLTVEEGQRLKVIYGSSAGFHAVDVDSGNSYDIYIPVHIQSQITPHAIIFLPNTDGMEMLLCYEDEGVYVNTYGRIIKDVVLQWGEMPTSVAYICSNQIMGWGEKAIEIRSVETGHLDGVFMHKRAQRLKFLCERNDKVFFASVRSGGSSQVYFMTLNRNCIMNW
Procedure: as §1

TESK1 = TESK1 (Homo sapiens, UniProt Q15569); assay: Kinase panel (140 human kinases); format: biochemical
Sequence of TESK1 (Q15569 whole entry): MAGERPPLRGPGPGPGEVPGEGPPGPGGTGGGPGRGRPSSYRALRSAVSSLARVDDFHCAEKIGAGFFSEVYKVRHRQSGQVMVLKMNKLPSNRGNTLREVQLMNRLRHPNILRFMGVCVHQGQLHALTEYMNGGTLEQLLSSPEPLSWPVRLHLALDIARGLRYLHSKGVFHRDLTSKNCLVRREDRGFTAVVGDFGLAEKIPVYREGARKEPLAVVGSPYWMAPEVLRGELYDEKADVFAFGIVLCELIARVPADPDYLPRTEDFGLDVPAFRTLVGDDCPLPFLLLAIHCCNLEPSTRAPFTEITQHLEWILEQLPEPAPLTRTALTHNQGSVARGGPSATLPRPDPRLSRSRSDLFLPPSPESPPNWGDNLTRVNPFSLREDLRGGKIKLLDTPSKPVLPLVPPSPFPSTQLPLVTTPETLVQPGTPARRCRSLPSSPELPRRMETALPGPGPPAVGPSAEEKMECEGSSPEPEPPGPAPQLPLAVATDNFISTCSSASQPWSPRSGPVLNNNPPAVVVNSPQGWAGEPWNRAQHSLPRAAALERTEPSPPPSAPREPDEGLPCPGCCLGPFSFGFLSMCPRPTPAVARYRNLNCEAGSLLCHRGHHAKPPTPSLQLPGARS
Procedure: as §1

TBK1 = molecular target: T1, TBK1 (Homo sapiens, UniProt Q9UHD2); assay: Kinase panel (140 human kinases); format: biochemical
T1 sequence (Q9UHD2 1-729): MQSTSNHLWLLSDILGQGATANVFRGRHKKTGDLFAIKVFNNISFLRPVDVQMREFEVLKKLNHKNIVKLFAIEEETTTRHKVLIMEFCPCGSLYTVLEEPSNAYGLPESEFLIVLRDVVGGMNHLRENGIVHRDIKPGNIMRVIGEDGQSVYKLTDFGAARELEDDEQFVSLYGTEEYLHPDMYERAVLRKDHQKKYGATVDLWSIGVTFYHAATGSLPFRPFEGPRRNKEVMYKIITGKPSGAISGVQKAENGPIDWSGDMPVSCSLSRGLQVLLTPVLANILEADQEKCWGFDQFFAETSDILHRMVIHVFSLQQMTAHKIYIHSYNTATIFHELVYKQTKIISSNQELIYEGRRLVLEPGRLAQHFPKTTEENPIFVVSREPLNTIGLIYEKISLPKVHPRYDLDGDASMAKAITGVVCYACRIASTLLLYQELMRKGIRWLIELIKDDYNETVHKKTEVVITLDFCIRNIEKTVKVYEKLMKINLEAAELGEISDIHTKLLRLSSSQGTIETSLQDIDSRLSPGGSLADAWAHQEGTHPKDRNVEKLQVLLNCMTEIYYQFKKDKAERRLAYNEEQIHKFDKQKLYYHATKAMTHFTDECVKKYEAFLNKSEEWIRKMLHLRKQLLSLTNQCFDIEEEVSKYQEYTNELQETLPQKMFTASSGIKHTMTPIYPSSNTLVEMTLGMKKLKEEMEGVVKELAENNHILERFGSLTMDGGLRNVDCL
Procedure: as §1

[1] = system: mouse primary hepatocytes; assay: Immunoblot of AMPK signaling in primary hepatocytes; format: cell-based
Procedure: Mouse hepatocytes were isolated by collagenase perfusion as previously described ([47]). Hepatocytes were seeded in medium Eagle-199 (MEM-199) (#41150, Thermo Fisher Scientific) containing penicillin G (100 U/ml), streptomycin (100 μg/ml), and 10% (v/v) fetal bovine serum (FBS). Hepatocytes were left for attachment (3 to 4 hours) and serum-starved overnight at 37°C with 5% CO2 in MEM-199 supplemented with penicillin G (100 U/ml), streptomycin (100 μg/ml), 10 nM insulin, and 100 nM dexamethasone. […] Cells were then harvested in 0.5 ml of phosphate-buffered saline (PBS), transferred into 1 ml of 40% KOH and 2 ml of methanol followed by 1-hour incubation at 80°C. Lipids were […] by acidifying the samples in 37% HCl and extracted with petroleum ether. Extracts were allowed to evaporate to dryness and then dissolved in Ultima Gold scintillation fluid for determination of [^14C]-acetate incorporation into lipids.
Following compound treatment, the cells were washed with room temperature PBS and lysed on ice with the addition of lysis buffer [50 mM tris-HCl (pH 7.5), 150 mM NaCl, 1 mM EDTA, 1 mM EGTA, 0.27 M sucrose, 1% w/v Triton X-100, 20 mM glycerol-2 phosphate disodium, 50 mM NaF, and 5 mM Na4P2O7.10 H2O] containing proteases and phosphatase inhibitors [0.5 mM phenylmethylsulfonyl fluoride (PMSF), 1 mM benzamidine HCl, leupeptin (1 μg/ml), pepstatin A (1 μg/ml), 1 μM microcystin-LR, 1 mM Na3VO4, and 1 mM DTT]. Lysates were centrifuged at 10,000g, 4°C for 10 min, and protein concentration of the supernatant was determined with the Pierce Bradford Protein Assay Kit (Thermo Fisher Scientific, #23200) and read on the Hidex Plate Reader (software version 0.5.64.0). Samples were prepared in Laemmli sample buffer (tris 200 mM, 8% SDS, EDTA 2 mM, and 40% glycerol) supplemented with 10% DTT and boiled for 5 min at 100°C. Ten micrograms of protein per sample was run on a Criterion tris-glycine polyacrylamide gel (Bio-Rad, #5678095) and transferred to a nitrocellulose membrane. For cell signaling experiments in HEK293 cells, the samples were run on a Criterion TGX stain-free precast gel (Bio-Rad, catalog no. 5678085) with transfer to a polyvinylidene difluoride membrane performed in Bio-Rad Criterion blotter (#1704071) using tris-glycine transfer buffer (Bio-Rad, #1610734) following the manufacturer’s instructions. […]

[2] = in the presence of MK-8722 (10 μM)

Sequence of FGF-R1 (P11362 22-822): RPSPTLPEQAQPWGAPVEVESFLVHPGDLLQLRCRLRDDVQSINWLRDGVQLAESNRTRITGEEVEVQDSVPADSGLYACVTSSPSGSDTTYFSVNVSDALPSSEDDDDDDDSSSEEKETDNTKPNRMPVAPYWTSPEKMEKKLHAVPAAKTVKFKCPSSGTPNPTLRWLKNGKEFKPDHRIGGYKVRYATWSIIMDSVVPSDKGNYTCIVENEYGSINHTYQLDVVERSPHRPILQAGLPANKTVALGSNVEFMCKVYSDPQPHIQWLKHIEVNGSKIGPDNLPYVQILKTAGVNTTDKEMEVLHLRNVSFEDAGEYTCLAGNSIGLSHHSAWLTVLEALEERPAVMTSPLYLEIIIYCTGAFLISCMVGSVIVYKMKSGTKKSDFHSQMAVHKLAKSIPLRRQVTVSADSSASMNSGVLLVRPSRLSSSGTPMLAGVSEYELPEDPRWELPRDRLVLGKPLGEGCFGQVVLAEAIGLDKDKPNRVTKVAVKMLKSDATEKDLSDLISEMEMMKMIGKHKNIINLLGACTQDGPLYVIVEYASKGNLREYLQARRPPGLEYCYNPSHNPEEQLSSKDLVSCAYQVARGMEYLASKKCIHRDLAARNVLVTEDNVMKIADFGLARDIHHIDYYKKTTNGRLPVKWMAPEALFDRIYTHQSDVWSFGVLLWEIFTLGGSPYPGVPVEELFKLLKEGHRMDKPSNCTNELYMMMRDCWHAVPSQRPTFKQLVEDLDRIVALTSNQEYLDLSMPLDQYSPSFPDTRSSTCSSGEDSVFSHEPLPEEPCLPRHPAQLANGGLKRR

Compound `CCc1ccccc1C(=O)Nc1n[nH]c2c(C)c(F)c(C3C(C#N)=C(C)N(C)C(C)=C3C#N)cc12` [BAY-3827, N-[5-(3,5-dicyano-1,2,6-trimethyl-4H-pyridin-4-yl)-6-fluoro-7-methyl-1H-indazol-3-yl]-2-ethylbenzamide] has a remaining activity at 0.1 µM (FGF-R1) of 89%, a remaining activity at 0.1 µM (MARK1) of 82% and an inhibition at 0.1 µM (MINK1) of roughly 60%. It also gave a remaining activity at 0.1 µM (MINK1) of no more than 50%, a remaining activity at 0.1 µM (TESK1) of 70% and an inhibition at 0.1 µM (TBK1) of roughly 60%. For the same compound, the remaining activity at 0.1 µM (TBK1) was no more than 50%, the “concentration giving full inhibition of ACC1 phosphorylation” value [1, 2] was 5 µM and the “concentration giving full inhibition of Raptor phosphorylation” value [1, 2] was 2.5 µM. The “increased pThr172AMPK levels” value ([1]; with or without MK-8722 (10 μM)) was “only significant under MK-8722–treated conditions at 5 μM”.
`CC1=C(C#N)C(c2ccc3c(c2)c(NC(=O)c2ccccc2C)nn3C)C(C#N)=C(C)N1` [BAY-974, N-[5-(3,5-dicyano-2,6-dimethyl-1,4-dihydropyridin-4-yl)-1-methylindazol-3-yl]-2-methylbenzamide] showed a remaining activity at 0.1 µM (FGF-R1) of 91%, a remaining activity at 0.1 µM (MARK1) of 93% and a remaining activity at 0.1 µM (MINK1) of 79%. The remaining activity at 0.1 µM (TESK1) was 88%, the remaining activity at 0.1 µM (TBK1) was 91% and the “levels of pACC1, pRaptor, or pAMPK” value ([1]; 5 μM, with or without MK-8722) was “no effect”.
